Laboratory results as given in the NIST ThermoML archive (doi:10.1016/j.jct.2011.02.018).

Experiment: xn = mol fraction of the nth substance listed
Details: 101 kPa, Liquid; for viscosity: Concentric cylinders viscometry; for mass density: Vibrating tube method

COC(C)(C)C [2-methoxy-2-methylpropane] + CC(C)O
Details | mass density, 293.15 K [kg/m3] | mass density, 298.15 K [kg/m3] | mass density, 303.15 K [kg/m3] | mass density, 308.15 K [kg/m3] | viscosity, 293.15 K [mPa·s] | viscosity, 298.15 K [mPa·s] | viscosity, 303.15 K [mPa·s] | viscosity, 308.15 K [mPa·s]
x1 = 0.0093 | 784.82 | 780.63 | 776.34 | 771.97 | 2.325 | 1.988 | 1.716 | 1.488
x1 = 0.0206 | 784.14 | 779.92 | 775.62 | 771.24 | 2.232 | 1.919 | 1.661 | 1.444
x1 = 0.0305 | 783.55 | 779.33 | 775.01 | 770.65 | 2.145 | 1.853 | 1.606 | 1.399
x1 = 0.0398 | 783 | 778.77 | 774.43 | 770.06 | 2.066 | 1.773 | 1.547 | 1.35
x1 = 0.0499 | 782.41 | 778.17 | 773.82 | 769.37 | 1.982 | 1.719 | 1.496 | 1.307
x1 = 0.0601 | 781.75 | 777.51 | 773.15 | 768.84 | 1.901 | 1.653 | 1.443 | 1.264
x1 = 0.0702 | 781.19 | 776.93 | 772.55 | 768.22 | 1.832 | 1.595 | 1.395 | 1.226
x1 = 0.0799 | 780.66 | 776.38 | 772 | 767.62 | 1.761 | 1.538 | 1.348 | 1.186
x1 = 0.0914 | 780.12 | 775.85 | 771.45 | 766.96 | 1.693 | 1.479 | 1.299 | 1.145
x1 = 0.1009 | 779.62 | 775.32 | 770.89 | 766.39 | 1.634 | 1.432 | 1.26 | 1.112
x1 = 0.1493 | 777.01 | 772.62 | 768.12 | 763.55 | 1.391 | 1.235 | 1.093 | 0.9806
x1 = 0.2014 | 774.27 | 769.81 | 765.24 | 760.59 | 1.193 | 1.057 | 0.9479 | 0.8473
x1 = 0.244 | 771.96 | 767.45 | 762.82 | 758.12 | 1.05 | 0.9465 | 0.8652 | 0.7741
x1 = 0.2863 | 769.95 | 765.38 | 760.69 | 755.94 | 0.9352 | 0.8443 | 0.7635 | 0.6933
x1 = 0.3081 | 768.87 | 764.26 | 759.55 | 754.77 | 0.885 | 0.8004 | 0.7251 | 0.6588
x1 = 0.351 | 766.72 | 762.06 | 757.3 | 752.47 | 0.8018 | 0.729 | 0.6639 | 0.6054
x1 = 0.3995 | 764.43 | 759.73 | 754.91 | 750.02 | 0.7225 | 0.6613 | 0.6057 | 0.5521
x1 = 0.4516 | 762.08 | 757.31 | 752.43 | 747.48 | 0.6544 | 0.6008 | 0.5514 | 0.501
x1 = 0.4999 | 759.97 | 755.15 | 750.22 | 745.22 | 0.6 | 0.5578 | 0.5139 | 0.4673
x1 = 0.5497 | 757.86 | 752.98 | 748.01 | 742.97 | 0.5545 | 0.5128 | 0.4738 | 0.4345
x1 = 0.5994 | 755.8 | 750.88 | 745.87 | 740.79 | 0.5151 | 0.477 | 0.4395 | 0.4032
x1 = 0.6493 | 753.77 | 748.81 | 743.75 | 738.63 | 0.4839 | 0.4481 | 0.4129 | 0.3822
x1 = 0.6993 | 751.8 | 746.81 | 741.69 | 736.5 | 0.4525 | 0.4253 | 0.3938 | 0.3678
x1 = 0.7499 | 749.84 | 744.78 | 739.62 | 734.4 | 0.4259 | 0.398 | 0.3695 | 0.3487
x1 = 0.8015 | 747.89 | 742.8 | 737.6 | 732.34 | 0.4066 | 0.3819 | 0.352 | 0.3323
x1 = 0.8509 | 746.05 | 740.92 | 735.7 | 730.41 | 0.3844 | 0.3613 | 0.3397 | 0.3136
x1 = 0.8997 | 744.25 | 739.1 | 733.84 | 728.52 | 0.3678 | 0.3459 | 0.3193 | 0.303
x1 = 0.9089 | 743.91 | 738.76 | 733.49 | 728.17 | 0.3718 | 0.3448 | 0.3254 | 0.298
x1 = 0.9191 | 743.54 | 738.35 | 733.11 | 727.78 | 0.3617 | 0.3398 | 0.3152 | 0.2968
x1 = 0.9294 | 743.17 | 737.99 | 732.74 | 727.41 | 0.3609 | 0.3374 | 0.3121 | 0.2986
x1 = 0.9401 | 742.78 | 737.6 | 732.34 | 727.01 | 0.3548 | 0.3317 | 0.307 | 0.293
x1 = 0.9512 | 742.37 | 737.18 | 731.91 | 726.58 | 0.355 | 0.3361 | 0.3045 | 0.2959
x1 = 0.9587 | 742.11 | 736.92 | 731.64 | 726.3 | 0.3558 | 0.3309 | 0.3021 | 0.2906
x1 = 0.97 | 741.7 | 736.51 | 731.24 | 725.88 | 0.3466 | 0.3247 | 0.302 | 0.2819
x1 = 0.9777 | 741.42 | 736.23 | 730.94 | 725.59 | 0.3447 | 0.3228 | 0.2983 | 0.2804
x1 = 0.9897 | 740.99 | 735.8 | 730.5 | 725.16 | 0.342 | 0.3204 | 0.2943 | 0.283
